Source: US20050101612A1, “Use of indole-3-acetic acids in the treatment of asthma, copd and other diseases” (priority 2002, published 2005)

Legend:
CRTh2 receptor = biological target: T1, CRTh2 receptor (Homo sapiens, UniProt Q9Y5Y4); assay: Intracellular calcium mobilisation (FLIPR, inhibition of PGD2 response) in HEK-hrCRTh2-Gα16 cells; format: cell-based; details: antagonism of 2×p[A]50 PGD2, Cheng-Prusoff analysis, read-out: pA2 (converted)
T1 construct: expressed in transfected cells
T1 sequence (Q9Y5Y4 1-395): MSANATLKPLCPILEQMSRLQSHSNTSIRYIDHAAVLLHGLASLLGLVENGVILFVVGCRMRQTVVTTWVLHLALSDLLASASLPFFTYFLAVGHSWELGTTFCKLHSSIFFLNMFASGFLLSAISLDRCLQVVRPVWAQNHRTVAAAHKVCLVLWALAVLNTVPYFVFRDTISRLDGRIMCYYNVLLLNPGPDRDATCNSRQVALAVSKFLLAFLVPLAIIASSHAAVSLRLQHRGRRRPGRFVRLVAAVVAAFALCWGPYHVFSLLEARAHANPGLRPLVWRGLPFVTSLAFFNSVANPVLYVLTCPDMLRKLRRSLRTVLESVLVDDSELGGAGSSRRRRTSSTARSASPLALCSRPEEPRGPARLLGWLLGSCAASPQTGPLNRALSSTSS
Description: Intracellular Calcium Mobilisation
Human Embryonic Kidney Cells co-transfected with both the CRTh2 receptor and Gα16 G-protein (HEK-hrCRTh2-Gα16) are routinely cultured as monolayers in Dulbecco's Modified Eagles Medium (DMEM; Sigma) supplemented with 10% (v:v) heat inactivated foetal bovine serum (New Zealand sourced; Hyclone), 1% (v:v) non-essential amino acids (Gibco BRL), 1% (v:v) penicillin/streptomycin (Gibco BRL), 2 mM L-glutamine (Gibco BRL) and grown under 1 mg/ml (v:v) Geneticin (Gibco BRL) antibiotic selection. Approximately 24 hours prior to the assay the cells are plated at a seeding density of 100,000 cells/well in 100 μl growth media into black walled 96 well Poly-D-Lysine coated plates (Becton Dickinson), with clear bottoms to allow cell inspection and fluorescence measurements from the bottom of each well. All cultures are maintained under standard tissue culture conditions (37° C. in a humidified atmosphere of 5% CO2).
To enable changes in intracellular calcium levels to be measured in HEK-hrCRTh2-Gα16 cells fluo-3AM is utilised as the fluorescent calcium indicator. A dye loading buffer is prepared which consists of a final concentration of 5 μM Fluo-3AM fluorescent cytoplasmic calcium indicator dye (Tef Labs), 2.2 μl/ml Pluronic F127 (Molecular Probes) to promote dye uptake, and 0.5 mM brilliant black (Sigma) to reduce background fluorescence in Balanced Salt Solution (BSS; 125 mM NaCl, 5.4mM KCl, 16.2 mM NaHCO3, 0.8 mM MgCl2, 1 mM CaCl2, 20 mM HEPES, 1 mM NaH2PO4, 5.5 mM D-(+)-Glucose, 0.1% BSA and pH 7.4 with NaOH). […]
Test compounds are made up at a stock concentration of 10 mM in DMSO. The compounds to be evaluated are then prepared, by serial dilution in BSS buffer, to the required concentrations for inhibition dose response curves to be constructed. […] This allows the potency agonist ([A]50) value to be determined for the HEK-hrCRTh2-Gα16 cells on any given day. Once the p[A]50 for PGD2 has been determined a separate assay plate containing 2×p[A]50 of PGD2 is prepared as the 2nd addition plate (or agonist plate). […]

Row | Structure (SMILES) | Kb (CRTh2 receptor) [nM] | melting point [°C]
1 | Cc1ccc2c(c1)c(CC(=O)O)c(C)n2-c1cc(Oc2ccccc2)nc(Oc2ccccc2)n1 [[1-(2,6-diphenoxypyrimidin-4-yl)-2,5-dimethyl-1H-indol-3-yl]acetic acid] | 158 | –
2 | COc1ccc2c(c1)c(CC(=O)O)c(C)n2-c1nc2ccccc2s1 [Example 2, [1-(1,3-benzothiazol-2-yl)-5-methoxy-2-methyl-1H-indol-3-yl]acetic acid] | 316 | 158 to 160
3 | COc1ccc2c(c1)c(CC(=O)O)c(C)n2-c1cc(Oc2ccccc2)nc(Oc2ccccc2)n1 [Example 3, [1-(2,6-diphenoxypyrimidin-4-yl)-5-methoxy-2-methyl-1H-indol-3-yl]acetic acid] | – | 168 to 170
4 | COc1ccc2c(c1)c(CC(=O)O)c(C)n2-c1cc(C)nc(-c2ccccc2)n1 [Example 1, [5-methoxy-2-methyl-1-(6-methyl-2-phenylpyrimidin4-yl)-1H-indol-3-yl]acetic acid] | 316 | 160 to 162
